# Results taken from patent US20050107447A1, “Novel lysophosphatidic acid receptor agonists and antagonists” (priority 2003, published 2005).
# Values joined by “and” are separate entries in the source; they are usually repeats but may differ in a detail not shown here. Equal values may be shown once. “Also recorded” adds a separate entry of the source.
# Tested on: HEK293T cells (express LPA1 and LPA3, not LPA2)
# Assay: Block of LPA-induced rises in free intracellular calcium in HEK293T cells (FLIPR)
# Assay type: cell-based
# Conditions: specificity control
# Excerpt: (§1) The X-intercept of the linear transformation is equal to the inverse log of the κ1.
row,SMILES,Antagonism of ATP-evoked calcium transients
1,CCCCCCCC/C=C\CCCCCCCC(=O)N[C@H](COP(=O)(O)O)Cc1ccc(OCc2ccccc2)cc1 [VPC12249],lack of antagonism

# Target: T1, human LPA1 (Homo sapiens, UniProt Q92633)
# T1 construct: expressed in transfected cells; host or cells: Sf9 insect cells, recombinant baculovirus
# T1 sequence (Q92633 whole entry): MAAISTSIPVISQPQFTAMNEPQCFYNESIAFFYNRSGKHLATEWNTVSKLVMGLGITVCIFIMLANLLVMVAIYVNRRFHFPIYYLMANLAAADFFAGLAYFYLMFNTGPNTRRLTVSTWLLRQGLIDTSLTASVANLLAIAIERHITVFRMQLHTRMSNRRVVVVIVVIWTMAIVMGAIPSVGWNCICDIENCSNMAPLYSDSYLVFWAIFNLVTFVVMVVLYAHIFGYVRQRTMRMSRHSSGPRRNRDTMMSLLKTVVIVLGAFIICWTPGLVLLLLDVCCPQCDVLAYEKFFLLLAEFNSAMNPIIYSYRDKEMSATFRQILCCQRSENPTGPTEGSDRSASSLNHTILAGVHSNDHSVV
# Assay: GTP[γ35S] binding, recombinant baculovirus-infected insect Sf9 cell membrane preparation
# Assay type: biochemical
# Conditions: Sf9 membranes
# Procedure: (§2) The same activity was determined with human LPA1 using a recombinant baculovirus-infected insect Sf9 cell membrane preparation.
row,SMILES,Antagonist activity at human LPA1
1,CCCCCCCC/C=C\CCCCCCCC(=O)N[C@H](COP(=O)(O)O)Cc1ccc(OCc2ccccc2)cc1 [VPC12249],same activity

# Target: T2, LPA1 (Mus musculus, UniProt P61793)
# T2 sequence (P61793 whole entry): as the sequence (Q92633 whole entry) above, with I4A, I8S, P22Q, H40Y, I61V, E193D, N194H, I269V, S331N, T335N counted along it
# Assay: GTP[γ35S] binding, LPA1 transfected HEK293T (or RH7777) cell membranes
# Assay type: biochemical
# Set-up: expressed in transfected cells; host or cells: HEK293T (transient, with G protein plasmids); some results from RH7777 rat hepatoma membranes transfected with LPA1 DNA only
# Conditions: not given
# Procedure: (§3) The appropriate receptor plasmid DNA (encoding mouse LPA1, human LPA2 or human LPA3) was mixed with equal amounts of expression plasmids (pcDNA3) encoding a mutated (C351F) rat Gi2a, cow β1, and γ2 proteins and these DNAs were used to transfect monolayers of HEK293T cells (where ‘T’ indicates expression of the SV-40 virus large T antigen) using the calcium phosphate precipitate method. After about 60 hours, cells were harvested, membranes were prepared, aliquoted and stored at −70° C. until use.
# (§4) The GTP[35 γS] assay was performed as described by us previously. Membranes containing 5 ug of protein were incubated in 0.1 ml GTP-binding buffer (in mM: HEPES 50, NaCl 100, MgCl2 10, pH7.5) containing […], […], 0.1 nM GTP[35 γS] (1200 Ci/mmol), and indicated lipid(s) for 30 minutes at 30° C. Samples were analyzed for membrane-bound radionuclide using a Brandel Cell Harvester (Gaithersburg, Md.).
# as §1
# (§5) Membranes prepared from these cells are used to measure GTPγ[^35S] binding as a function of test compound concentration. The resulting dose-response curves provide relative potency (EC50) and efficacy, (Emax) for the test compounds.
SMILES,Emax [%],Antagonism of LPA-induced GTP[γ35S] binding at LPA1
CCCCCCCC/C=C\CCCCCCCC(=O)N[C@@H](CN)COP(=O)(O)O [VPC12048],9.4,
CCCCCCCC/C=C\CCCCCCCC(=O)N[C@@H](COP(=O)(O)O)Cc1ccccc1 [VPC12084],23.7,did block LPA activity
CCCCCCCC/C=C\CCCCCCCC(=O)N[C@H](C)COP(=O)(O)O [VPC12086],108,

# Same assay, conditions: agonist, GTP[γ35S] binding
row,SMILES,EC50 [nM]
1,CCCCCCCC/C=C\CCCCCCCC(=O)N[C@@H](CN)COP(=O)(O)O [VPC12048],> 5000
2,CCCCCCCC/C=C\CCCCCCCC(=O)N[C@@H](COP(=O)(O)O)Cc1ccccc1 [VPC12084],38.4
3,CCCCCCCC/C=C\CCCCCCCC(=O)N[C@H](C)COP(=O)(O)O [VPC12086],3.4

# Same assay, conditions: vs 1-oleoyl LPA
row,SMILES,Potency at LPA1 relative to LPA
1,CCCCCCCC/C=C\CCCCCCCC(=O)N[C@H](C)COP(=O)(O)O [VPC12086],more potent than 1-oleoyl LPA; also recorded: more potent and efficacious than LPA

# Tested on: LPA receptors
# Assay: Whole cell assays of calcium mobilization or inhibition of cAMP accumulation (agonist activity)
# Assay type: cell-based
# Conditions: not given
# Procedure: (§6) Assays for cAMP accumulation were conducted on populations of 5×10^5 cells stimulated with […] in the presence of the phosphodiesterase inhibitor isomethylbutylxanthine (IBMX) for 15 minutes at 30° C. cAMP was measured by automated radioimmunoassay.
# A FLIPR™ (Molecular Devices, Inc.) was used to measure intracellular calcium in A431 and HEK293T cells. A431 cells were seeded (−50,000 cells/well) in 96-well clear bottom black microplates (Corning Costar Corp., Cambridge, Mass.) and left overnight in CO2 incubator at 37° C. HEK293T cells were treated likewise, but seeded onto poly D-lysine coated microplates (Becton Dickinson, Franklin Lakes, N.J.). A431 cells were dye-loaded with 4 μM Fluo-3 AM ester (Molecular Probes Inc., Eugene, Oreg.) in a loading buffer (1×HBSS buffer, pH 7.4, containing 20 mM HEPES, 0.1% BSA, and 2.5 mM probenecid) for 1 hour at 37° C. Cells were then washed four times with the loading buffer and exposed in the FLIPR™ to sets of compounds. HEK293T cells were loaded with 2 μM Fluo-4 AM ester (Molecular Probes Inc., Eugene, Oreg.) in the same loading buffer without probenecid for 30 minutes and washed four times before being exposed to compounds in the FLIPR™. […]
# as §2
row,SMILES,Agonist activity in whole cell assays
1,CCCCCCCC/C=C\CCCCCCCC(=O)N[C@@H](COP(=O)(O)O)Cc1ccccc1 [VPC12084],appreciable agonist activity
2,CCCCCCCC/C=C\CCCCCCCC(=O)N[C@H](COP(=O)(O)O)Cc1ccc(OCc2ccccc2)cc1 [VPC12249],completely devoid of agonist activity

# Target: T2, LPA1
# Assay: cAMP accumulation in RH7777 cells stably expressing LPA1
# Assay type: cell-based
# Set-up: expressed in transfected cells
# Conditions: RH7777 cells stably expressing LPA1
# Procedure: as §6
# Rat hepatoma RH7777 cell monolayers were transfected with the mLPA1 plasmid DNA using the calcium phosphate precipitate method and clonal populations expressing the neomycin phosphotransferase gene were selected by addition of geneticin (G418) to the culture media. The RH7777 cells were grown in monolayers at 37° C. in a 5% CO02/95% air atmosphere in growth media consisting of: 90% MEM, 10% fetal bovine serum, 2 mM glutamine and 1 mM sodium pyruvate.
# wls-b8L and the other phosphonates were also tested also for activity in three whole cell assays. […] Finally, the activity of wls-b8L in activating a chloride conductance in Xenopus laevis ooctyes was measured.
row,SMILES,Block of LPA1-mediated inhibition of forskolin-induced cAMP increase
1,CCCCCCCC/C=C\CCCCCCCC(=O)N[C@H](COP(=O)(O)O)Cc1ccc(OCc2ccccc2)cc1 [VPC12249],inhibited

# Tested on: renal injury following ischemia-reperfusion (IR)
# Assay: Renal ischemia-reperfusion model
# Assay type: in vivo, mouse
# Conditions: 0.01 mg/kg/2 hrs, 24 hrs of reperfusion, n=4
# Procedure: C57BL6 mice (20 gm, 8 wks of age) were used for all studies. The surgical protocol of renal IR has been previously described (Okusa et al., 1999. Am. J. Physiol. (Renal Physiol.) 277: F404-412; Okusa, et al., 2000 Am. J. Physiol. (Renal Physiol.) 279; F809-F818, and Okusa et al., 2001 Kidney Int. 59:2114-2125). For the injury protocol, bilateral flank incisions were made under anesthesia with a regimen that consists of ketamine (100 mg/kg, ip.), xylazine (10 mg/kg, ip.) and acepromazine (1 mg/kg, im.). Renal pedicles were exposed and cross-clamped for 27-32 min. Kidneys were examined for immediate reperfusion following clamp removal. Wounds were closed and mice were returned to cages. […] The mice were sacrificed and the kidneys harvested at 1, 4, 8, 24, 48 hrs, 5 and 7 days. […] Mice were sacrificed following 24 hrs of reperfusion and plasma was obtained for BUN and creatinine.
row,SMILES,Plasma creatinine
1,CCCCCCCC/C=C\CCCCCCCC(=O)N[C@H](COP(=O)(O)O)Cc1ccc(OCc2ccccc2)cc1 [VPC12249],1.06±0.25

# Same assay, conditions: 1 mg/kg/2 hr
row,SMILES,"H and E sections, tissue preservation"
1,CCCCCCCC/C=C\CCCCCCCC(=O)N[C@H](COP(=O)(O)O)Cc1ccc(OCc2ccccc2)cc1 [VPC12249],marked degree of tissue preservation

# Same assay, conditions: 1.0 mg/kg/2 hrs, 24 hrs of reperfusion, n=4
row,SMILES,Plasma creatinine
1,CCCCCCCC/C=C\CCCCCCCC(=O)N[C@H](COP(=O)(O)O)Cc1ccc(OCc2ccccc2)cc1 [VPC12249],0.31±0.4

# Target: LPA2 (Homo sapiens, UniProt Q9HBW0)
# Sequence (Q9HBW0 whole entry): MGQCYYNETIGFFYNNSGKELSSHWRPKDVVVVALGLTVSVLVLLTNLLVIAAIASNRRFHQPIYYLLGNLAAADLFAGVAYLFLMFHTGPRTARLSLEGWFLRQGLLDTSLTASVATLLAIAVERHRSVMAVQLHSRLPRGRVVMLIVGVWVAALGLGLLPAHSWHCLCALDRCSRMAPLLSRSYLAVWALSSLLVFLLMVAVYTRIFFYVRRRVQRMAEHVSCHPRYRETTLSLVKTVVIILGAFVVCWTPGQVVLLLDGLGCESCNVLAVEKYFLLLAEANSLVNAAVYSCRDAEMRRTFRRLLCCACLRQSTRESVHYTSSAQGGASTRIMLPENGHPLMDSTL
# Assay: GTP[γ35S] binding, LPA2 transfected HEK293T cell membranes
# Assay type: biochemical
# Set-up: expressed in transfected cells; host or cells: HEK293T (transient, calcium phosphate)
# Conditions: not given
# Procedure: as §3, §4, §1, §5
SMILES,Emax [%],Antagonism of LPA-induced GTP[γ35S] binding at LPA2
CCCCCCCC/C=C\CCCCCCCC(=O)N[C@@H](CN)COP(=O)(O)O [VPC12048],36.4,
CCCCCCCC/C=C\CCCCCCCC(=O)N[C@@H](COP(=O)(O)O)Cc1ccccc1 [VPC12084],97,
CCCCCCCC/C=C\CCCCCCCC(=O)N[C@H](C)COP(=O)(O)O [VPC12086],95.2,
CCCCCCCC/C=C\CCCCCCCC(=O)N[C@H](COP(=O)(O)O)Cc1ccc(OCc2ccccc2)cc1 [VPC12249],,lack of antagonist activity

# Same assay, conditions: agonist, GTP[γ35S] binding
row,SMILES,EC50 [nM]
1,CCCCCCCC/C=C\CCCCCCCC(=O)N[C@@H](CN)COP(=O)(O)O [VPC12048],> 5000
2,CCCCCCCC/C=C\CCCCCCCC(=O)N[C@@H](COP(=O)(O)O)Cc1ccccc1 [VPC12084],268
3,CCCCCCCC/C=C\CCCCCCCC(=O)N[C@H](C)COP(=O)(O)O [VPC12086],18.3

# Target: T3, LPA3 (Homo sapiens, UniProt Q9UBY5)
# T3 sequence (Q9UBY5 1-353): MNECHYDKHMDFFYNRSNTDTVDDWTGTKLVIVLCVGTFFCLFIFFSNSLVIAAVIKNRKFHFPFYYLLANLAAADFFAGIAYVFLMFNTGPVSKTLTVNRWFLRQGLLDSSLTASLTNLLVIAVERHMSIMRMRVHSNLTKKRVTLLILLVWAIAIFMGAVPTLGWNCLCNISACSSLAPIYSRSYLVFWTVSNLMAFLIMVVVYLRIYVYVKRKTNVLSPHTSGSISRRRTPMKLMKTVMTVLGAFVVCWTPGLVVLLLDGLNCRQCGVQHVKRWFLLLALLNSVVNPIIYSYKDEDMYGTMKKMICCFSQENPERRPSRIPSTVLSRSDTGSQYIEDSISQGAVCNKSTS
# Assay: GTP[γ35S] binding, LPA3 transfected HEK293T cell membranes
# Assay type: biochemical
# Set-up: expressed in transfected cells; host or cells: HEK293T (transient, calcium phosphate)
# Conditions: not given
# Procedure: as §3, §4, §1, §5
SMILES,Emax [%],Antagonism of LPA-induced GTP[γ35S] binding at LPA3
CCCCCCCC/C=C\CCCCCCCC(=O)N[C@@H](CN)COP(=O)(O)O [VPC12048],3.8,
CCCCCCCC/C=C\CCCCCCCC(=O)N[C@@H](COP(=O)(O)O)Cc1ccccc1 [VPC12084],78.7,
CCCCCCCC/C=C\CCCCCCCC(=O)N[C@H](C)COP(=O)(O)O [VPC12086],93.4,
CCCCCCCC/C=C\CCCCCCCC(=O)N[C@H](COP(=O)(O)O)Cc1ccc(OCc2ccccc2)cc1 [VPC12249],,surmountable antagonist

# Same assay, conditions: Schild regression, block of LPA-induced GTP[γ35S] binding
row,SMILES,Ki
1,CCCCCCCC/C=C\CCCCCCCC(=O)N[C@H](COP(=O)(O)O)Cc1ccc(OCc2ccccc2)cc1 [VPC12249],428 nM and ~425 nM

# Same assay, conditions: agonist, GTP[γ35S] binding
row,SMILES,EC50 [nM]
1,CCCCCCCC/C=C\CCCCCCCC(=O)N[C@@H](CN)COP(=O)(O)O [VPC12048],> 5000
2,CCCCCCCC/C=C\CCCCCCCC(=O)N[C@@H](COP(=O)(O)O)Cc1ccccc1 [VPC12084],351
3,CCCCCCCC/C=C\CCCCCCCC(=O)N[C@H](C)COP(=O)(O)O [VPC12086],113
